The record followed here is patent publication US8735429B2, “Benzamide compounds useful as histone deacetylase inhibitors” (AstraZeneca AB, priority 2005, dated 2014).

The structures appear in SMILES notation.

In one assay the target is T1, recombinant human HDAC1 (Homo sapiens, UniProt Q13547).
T1 construct: FLAG (C); made in house; host or cells: Hi5 insect cells
The assay can be described thus: In vitro enzyme assay of recombinant HDAC1 (Test (a)). The note with it: recombinant human HDAC1, acetylated histone H4 peptide substrate; read-out: IC50 Test (a) (In vitro assay for the inhibition of HDAC1). The format is biochemical. The procedure:
(a) In Vitro Enzyme Assay of Recombinant HDAC1
HDAC inhibitors were screened against recombinant human HDAC1 produced in Hi5 insect cells. The enzyme was cloned with a FLAG tag at the C-terminal of the gene and affinity purified using Anti-FLAG M2 agarose from SIGMA (A2220).
The deacetylase assays were carried out in a 50 μl reaction. HDAC1 (75 ng of enzyme) diluted in 15 μl of reaction buffer (25 mM TrisHCl (pH 8), 137 mM NaCl, 2.7 mM KCl, 1 mM MgCl2) was mixed with either buffer alone (10 μl) or buffer containing compound (10 μl) for 30 minutes at ambient temperature. 25 μM acetylated histone H4 peptide (KI 174 Biomol) diluted in 25 μl of buffer was then added to the reaction and incubated for one hour at ambient temperature. The reaction was stopped by addition of an equal volume (50 μl) of Fluor de Lys developer (Biomol) containing Trichostatin A at 2 μM. The reaction was allowed to develop for 30 minutes at ambient temperature and then fluorescence measured at an excitation wavelength of 360 nm and an emission wavelength of 465 nm. IC50 values for HDAC enzyme inhibitors were determined by performing dose response curves with individual compounds and determining the concentration of inhibitor producing fifty percent decrease in the maximal signal (diluent control).

The subject of a further assay is HCT116 cells. The experiment in a line: In vitro assay of inhibition of proliferation in whole cells (Test (b)). Conditions: Homo sapiens, HCT-116, 72 hours, MTS, read-out: IC50 Test (b) (In vitro assay for the inhibition of whole cell proliferation). The format is cell-based. The procedure:
(b) In Vitro Assay of Inhibition of Proliferation in Whole Cells
Inhibition of proliferation in whole cells was assayed using the Promega cell titer 96 aqueous proliferation assay (Promega #G5421). HCT116 cells were seeded in 96 well plates at 1×10^3 cells/well, and allowed to adhere overnight. They were treated with inhibitors for 72 hours. 20 μl of the tetrazolium dye MTS was added to each well and the plates were re-incubated for 3 hours. Absorbance was then measured on a 96 well plate reader at […]. The IC50 values for HDAC inhibitors were determined by performing dose response curves with individual compounds and determining the concentration of inhibitor producing fifty percent decrease in the maximal signal (diluent control).

T1 sequence (Q13547 whole entry): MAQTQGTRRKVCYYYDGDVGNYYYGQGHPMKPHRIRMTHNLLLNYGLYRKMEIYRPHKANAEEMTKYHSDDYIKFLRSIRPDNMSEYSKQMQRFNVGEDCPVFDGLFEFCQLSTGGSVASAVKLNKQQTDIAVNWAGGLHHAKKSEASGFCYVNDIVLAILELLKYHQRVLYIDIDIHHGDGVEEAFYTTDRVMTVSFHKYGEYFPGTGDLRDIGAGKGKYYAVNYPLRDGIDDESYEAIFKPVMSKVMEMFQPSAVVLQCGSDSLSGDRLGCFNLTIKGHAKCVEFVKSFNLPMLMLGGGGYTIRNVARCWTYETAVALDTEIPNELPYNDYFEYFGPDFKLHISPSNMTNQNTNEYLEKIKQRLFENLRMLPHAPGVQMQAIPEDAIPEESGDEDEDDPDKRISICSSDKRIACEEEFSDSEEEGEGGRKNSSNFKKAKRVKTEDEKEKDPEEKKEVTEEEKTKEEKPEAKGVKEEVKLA

As to `Nc1ccccc1NC(=O)c1ccc(C2CCN(Cc3ccccn3)CC2)cc1` [Comparative Compound 1, N-(2-aminophenyl)-4-[1-(pyrid-2-ylmethyl)piperidin-4-yl]benzamide], the IC50 was 0.1 µM at recombinant human HDAC1 and 1.43 µM in the assay with HCT116 cells.
Consider `COc1c(CN2CCC(c3ccc(C(=O)Nc4ccccc4N)cc3)CC2)c(C)nn1C` [Example 4, N-(2-Aminophenyl)-4-{1-[(5-methoxy-1,3-dimethyl-1H-pyrazol-4-yl)methyl]piperidin-4-yl}benzamide], for which the figures for the IC50 at recombinant human HDAC1 and with HCT116 cells were 0.081 µM and 0.508 µM, respectively.
